Where two headings read alike, the source gives them in different places.
Experiments:
[1] = Liposome oxidation assay (AAPH-induced oxidation, DPH-PA probe); assay type: biochemical; conditions: for IC50: 30 min oxidation, 37 °C, pH 7.4, read-out: IC50 AAPH PC (inhibition of AAPH induced oxidation of phosphatidylcholine liposomes)
Description: (§1) Small unilamellar liposomes (SUV) consisted of phosphatidylcholine (egg-PC) were prepared in accordance with the methodology described by Gabrielska and Oszmiański. The lipids were dissolved in chloroform (100 mg/mL), evaporated to dryness under nitrogen and under vacuum for another 60 min. Subsequently, a phosphate buffer […] of pH 7.4 was added and liposomes were formed by mechanical shaking. Then SUVs were formed using a 20 kHz sonicator for 15 min. During sonication the samples were thermostated at 0–2 °C. In the study, PC liposomes at a concentration of 0.1 mg/mL in phosphate buffer (pH 7.4) were used. Liposomes prepared according to the presented-above procedure were used to determine the antioxidative activity and in fluorometric studies.
Antioxidant activities of Q 7-MeGlu and Q were determined using a fluorometric method described earlier by Strugała et al. with minor modifications. The studies were carried out on PC liposomes, which contained the fluorescent probe DPH-PA. Use was made of the relationship between DPH-PA fluorescence intensity and concentration of free radicals. The probe’s fluorescence decreased with its rising oxidation caused by free radicals, supplied by AAPH. Molecules of this compound underwent thermal decomposition into two free radicals each. The value of relative intensity of DPH-PA fluorescence was adopted as a measure of the degree of lipid membrane oxidation. It was calculated as a ratio of fluorescence intensity after 30 min of oxidation in the presence of antioxidants to the initial value of the intensity. The studied polyphenolic compounds scavenged free radicals and thus caused a lower rate of DPH-PA fluorescence decrease. PC liposomes at a concentration of 0.1 mg/mL in phosphate buffer (pH 7.4) were used, incubated for 0.5 h in darkness with addition of DPH-PA probe at a concentration of 1 µM (stock solutions were prepared in DMF). […] The wavelengths of excitation and emission for the probe were as follows: λex = 355 nm, λem = 430 nm. Oxidation was initiated just before measurement, using AAPH at a concentration of […] (dissolved in water) at 37 °C (control sample), or in the presence of test substances (Q 7-MeGlu and Q). The concentrations of studied compounds fluctuated in the range 3–7 µM for Q 7-MeGlu and 2–5 µM for Q. The measurements were conducted with a Cary Eclipse fluorimeter.

COX-2 = biological target: T1, COX-2 (Homo sapiens, UniProt P35354); test: Inhibition of cyclooxygenase 2 (spectrophotometric, TMPD); assay type: biochemical
T1 construct: purchased Sigma-Aldrich
T1 sequence (P35354 18-604): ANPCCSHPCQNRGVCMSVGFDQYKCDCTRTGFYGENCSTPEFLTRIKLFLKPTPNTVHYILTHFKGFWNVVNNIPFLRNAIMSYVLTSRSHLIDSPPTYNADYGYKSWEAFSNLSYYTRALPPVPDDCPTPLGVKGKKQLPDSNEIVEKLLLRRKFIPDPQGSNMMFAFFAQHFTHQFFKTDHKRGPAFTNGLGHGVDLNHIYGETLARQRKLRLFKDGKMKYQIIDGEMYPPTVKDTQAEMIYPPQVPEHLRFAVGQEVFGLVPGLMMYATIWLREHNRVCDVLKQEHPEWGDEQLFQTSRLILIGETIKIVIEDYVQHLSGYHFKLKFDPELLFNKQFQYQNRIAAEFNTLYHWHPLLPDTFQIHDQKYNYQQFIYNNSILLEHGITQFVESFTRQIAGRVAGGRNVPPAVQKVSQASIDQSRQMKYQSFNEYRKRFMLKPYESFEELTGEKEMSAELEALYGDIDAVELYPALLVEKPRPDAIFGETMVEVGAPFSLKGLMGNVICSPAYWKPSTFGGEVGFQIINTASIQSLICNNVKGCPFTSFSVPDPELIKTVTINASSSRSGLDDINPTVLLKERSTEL
From the text: The probes 1,6-diphenyl-1,3,5-hexatriene (DPH), 3-[p-(6-phenyl)-1,3,5-hexatrienyl]propionic acid (DPH-PA), Merocyanine 540 (MC540), and N,N,N-trimethyl-4-(6-phenyl-1,3,5-hexatrien-1-yl)phenylammonium p-toluenesulfonate (TMA-DPH) were purchased from Molecular Probes (Eugene, OR, USA). Tris (hydroxymethyl) aminomethane (Tris:HCl) were obtained from “Chempur” (Piekary Śląskie, Poland). Quercetin (Q) was purchased from Sigma-Aldrich.
This experiment, established on the basis of a modified method given in the work by Jang and Pezzuto [68], was conducted by a spectrophotometric measurement of inhibition of the cyclooxygenases’ activity COX-1 and COX-2. […] To initiate the reaction, arachidonic acid was added at a concentration of 35 mM. The final volume of the sample was 1 mL. […] The measurements were carried out at room temperature. The control sample contained the right amount of solvent (methanol) instead of the studied compounds. […] The experiment was performed in five replicates (n = 5).

[2] = Fluorescence measurements with MC540, TMA-DPH and DPH probes in liposome membranes; conditions: concentration 1–10 μM
Description: as §1
The Q 7-MeGlu and Q effect on the hydrophilic and hydrophobic properties of the membrane was determined using the fluorometric method applying the MC540, TMA-DPH and DPH fluorescence probes according to the procedure described by Strugała et al.. Merocyanine 540 (MC540) is a probe that partitions into the membrane and orients parallel to the glycerol backbones of the lipids. The fluorescence intensity of MC540 emission was determined and expressed as relative intensity change in relation to control as a function of studied compounds concentration. The TMA-DPH and DPH probes are supposed to distribute in the hydrophobic part of the bilayer. All the fluorescent probes were used at 1 μM concentration. The DPH and TMA-DPH stock solutions were prepared in DMF, while the probe MC540 was dissolved in methanol. Liposomes were prepared according to procedure described in Section 3.6.1. […] Fluorescence anisotropy for TMA-DPH and DPH was calculated using the following equation [64]:(5) A=I∥−GI⊥/I∥+2GI⊥ where I∥ and I⊥ are fluorescence intensities observed in directions parallel and perpendicular, respectively to the polarization plane of the exciting wave. […]
The fluorescence experiment was conducted using a Cary Eclipse fluorimeter (Varian, Palo Alto, CA, USA). […]

O=c1c(O)c(-c2ccc(O)c(O)c2)oc2cc(O)cc(O)c12 [Quercetin, 3,3′,4′,5,7-pentahydroxyflavone]
IC50 [1]: 4.49 ± 0.24 µM | IC50 (COX-2): 17 ± 2.43 µM | reduction in intensity of the MC540 probe's fluorescence [2]: 29–56% | relative changes in anisotropy in the probe TMA-DPH [2]: 16–37%

CO[C@H]1[C@H](O)[C@@H](O)[C@H](Oc2cc(O)c3c(=O)c(O)c(-c4ccc(O)c(O)c4)oc3c2)O[C@@H]1CO [Q 7-MeGlu, quercetin 7-O-β-D-(4″-O-methyl)glucopyranoside]
IC50 [1]: 5.47 ± 0.47 µM | antioxidative activity, fold higher than L-(+)-ascorbic acid ([1]; from IC50 values): ca. 24 fold | antioxidative activity, fold lower than quercetin ([1]; from IC50 values): ca. 1.2 fold | IC50 (COX-2; Tris-HCl pH 8.0, room temperature, read-out: IC50 COX-2): 49.2 ± 5.55 µM | relative changes in anisotropy in the probe TMA-DPH [2]: 5–10%
